Data on 14 molecules can be found in patent US20240174629A1 (OTCPHARM JSC, priority 2021, published 2024).

Data set [1] in a line: Cytotoxicity, microtetrazolium test (MTT). The conditions noted are these: dog, MDCK cells, CC50 (MDCK), mean ±SD.

≈ marks a conversion by molar mass, not a printed value. Where only a bound is given, the exact number is not on record here.

The molecule `COC(=O)c1c(N(Cc2ccccc2C)C(C)=O)sc2c(CN(C)C)c(O)ccc12` [Example 58] had a melting point of 155 to 160 °C. In data set [1], this molecule registered a CC50 at 48 h greater than 300 µg/mL.
Taken in the same sequence, the figures for `CC(=O)N(Cc1ccccc1)c1sc2cc(O)ccc2c1C(=O)O` [Example 67, 2-[acetyl(benzyl)amino]-6-hydroxy-1-benzothiophene-3-carboxylic acid] were 130 to 135 °C and greater than 300 µg/mL.
Taken in the same sequence, the figures for `COC(=O)c1c(N(Cc2ccccc2F)C(C)=O)sc2cc(O)ccc12` [Example 24, Methyl 2-[acetyl(2-fluorobenzyl)amino]-6-hydroxy-1-benzothiophene-3-carboxylate] were 165 to 167 °C and greater than 300 µg/mL.
For `COC(=O)c1c(N(Cc2ccc(F)cc2)C(C)=O)sc2cc(O)ccc12` [Example 28, Methyl 2-[acetyl(4-fluorobenzyl)amino]-6-hydroxy-1-benzothiophene-3-carboxylate] the same measures were 198 to 202 °C and 240 ± 19 µg/mL (≈ 643 µM).
Regarding `CC(=O)N(Cc1ccccc1Cl)c1sc2c(Cl)c(O)ccc2c1C(=O)O` [Example 68, 2-[acetyl(2-chlorobenzyl)amino]-7-chloro-6-hydroxy-1-benzothiophene-3-carboxylic acid], the melting point was 265 to 270 °C. The molecule further gave a CC50 at 48 h in data set [1] of 65 ± 4 µg/mL (≈ 158 µM).
Taken in the same sequence, the figures for `CC(=O)N(Cc1ccccc1)c1sc2c(Cl)c(O)ccc2c1C(=O)OC(C)(C)C` [Example 5, Tert-butyl 2-[acetyl(benzyl)amino]-7-chloro-6-hydroxy-1-benzothiophene-3-carboxylate] were 200 to 205 °C and 4.1 ± 0.2 µg/mL (≈ 9.49 µM).
For `CNC(=O)c1c(N(Cc2ccc(F)cc2)C(C)=O)sc2c(Cl)c(O)ccc12` [Example 77] the same measures were 192 to 195 °C and 32.2 ± 2.4 µg/mL (≈ 79.1 µM).
With `COC(=O)c1c(N(C(C)=O)C(C)c2ccccc2)sc2cc(O)ccc12` (stereo not shown) [Example 38, Methyl 2-[acetyl(1-phenylethyl)amino]-6-hydroxy-1-benzothiophene-3-carboxylate], the melting point is 152 to 157 °C. In data set [1], this molecule gave a CC50 at 48 h of 30 µg/mL (≈ 81.2 µM).
Taken in the same sequence, the figures for `COC(=O)c1c(N(Cc2ccccc2Cl)C(C)=O)sc2cc(O)ccc12` [Example 16, Methyl 2-[acetyl(2-chlorobenzyl)amino]-6-hydroxy-1-benzothiophene-3-carboxylate] were 220 to 224 °C and 21 µg/mL (≈ 53.9 µM).
For `CC(=O)N(Cc1ccccc1)c1sc2c(Cl)c(O)ccc2c1C(=O)N1CCCCC1` [Example 82, N-benzyl-N-[7-chloro-6-hydroxy-3-(piperidin-1-ylcarbonyl)-1-benzothien-2-yl]acetamide] the same measures were 95 to 100 °C and 16.3 ± 0.8 µg/mL (≈ 36.8 µM).
`COC(=O)c1c(N(Cc2ccc(F)cc2F)C(C)=O)sc2cc(O)ccc12` [Example 30, Methyl 2-[acetyl(2,4-difluorobenzyl)amino]-6-hydroxy-1-benzothiophene-3-carboxylate] registered a melting point of 178 to 180 °C. For the same molecule, the CC50 at 48 h in data set [1] is greater than 300 µg/mL.
Taken in the same sequence, the figures for `CNC(=O)c1c(N(Cc2ccccc2F)C(C)=O)sc2cc(O)ccc12` [Example 76, 2-[acetyl(2-fluorobenzyl)amino]-6-hydroxy-N-methyl-1-benzothiophene-3-carboxamide] were 105 to 112 °C and greater than 300 µg/mL.
Taken in the same sequence, the figures for `CC(=O)N(Cc1ccccc1)c1sc2cc(O)ccc2c1C(=O)OC(C)C` [Example 8, Isopropyl 2-[acetyl(benzyl)amino]-6-hydroxy-1-benzothiophene-3-carboxylate] were 126 to 130 °C and 13.9 ± 1.1 µg/mL (≈ 36.2 µM).
For `CCOC(=O)c1c(N(Cc2ccccc2)C(C)=O)sc2cc(O)ccc12` [Example 2, Ethyl 2-[acetyl(benzyl)amino]-6-hydroxy-1-benzothiophene-3-carboxylate] the same measures were 146 to 148 °C and 11.7 ± 0.6 µg/mL (≈ 31.7 µM).
